From patent US20180221352A1, “3-(1H-PYRROLO[2,3-C]PYRIDIN-2-YL)-1H-PYRAZOLO[3,4-B]PYRIDINES AND THERAPEUTIC USES THEREOF” (Samumed, LLC, priority 2015, published 2018)

How the values were obtained:
Assay type in all cases: cell-based
[1] = tested on: primary human fibroblasts derived from IPF patients (LL29 cells); assay: Inhibition of fibrotic process, αSMA staining in TGF-β1 treated fibroblasts; conditions: Fibroblast; for EC50: 96 h, LL29 cells, TGF-β1 20 ng/mL, 4 days, % αSMA positive cells; for inhibition at 10 µM: read-out: percent inhibition at 10 μM
Procedure: Representative compounds were screened using primary human fibroblasts (derived from IPF patients) treated with TGF-β1 to determine their ability to inhibit the fibrotic process.
LL29 cells are plated at 1,500 cells/well in 80 μL/well F12 medium supplemented with 1% Fetal Bovine Serum. […] Wells treated with TGF-31 and containing DMSO were used as controls. […] Following incubation for 4 days, SYTOX green nucleic acid stain (Life Technologies [Thermo Fisher Scientific]) was added to the wells at a final concentration of 1 μM and incubated at room temperature for 30 min.

[2] = tested on: SW480 colon cancer cells; assay: Cell viability assay (CellTiter-Blue); conditions: Homo sapiens; for EC50: 96 h, SW480 cell viability, four days; for inhibition at 10 µM: SW480, 96 h, read-out: percent inhibition at 10 μM
Procedure: Representative compounds were screened using the following assay procedure to assess the effect on cell viability as described below.
Approximately 2×10^3 SW480 colon cancer cells were seeded into each well and allowed to incubate in the presence or absence of compound for four days at 37° C./5% CO2. Eight replicates of DMSO-treated cells served as controls and cells treated with compound were performed in duplicate.
After incubation, 20 μL of CellTiter-Blue (Promega) was added to each well allowed to incubate for approximately 3 hours. This reagent was a buffered solution which contains resazurin, metabolically active cells were able to reduce rezarurin (blue) into resorufin (pink) which was highly fluorescent. This measured fluorescence was used as a readout for cell viability.

[3] = tested on: Wnt activity (Sp5-Luc reporter, SW480 colon carcinoma cells); assay: Wnt activity screening assay, Sp5-Luc reporter gene in SW480 cells; conditions: Homo sapiens; for EC50: Sp5-Luc reporter, SW480 cells, overnight incubation; for inhibition at 10 µM: SW480, read-out: percent inhibition at 10 μM
From the text: The screening assay for Wnt activity is described as follows. Reporter cell lines can be generated by stably transducing cancer cell lines (e.g., colon cancer) or primary cells (e.g., IEC-6 intestinal cells) with a lentiviral construct that includes a Wnt-responsive promoter driving expression of the firefly luciferase gene.
SW480 colon carcinoma cells were transduced with a lentiviral vector expressing luciferase with a human Sp5 promoter consisting of a sequence of eight TCF/LEF binding sites. SW480 cells stably expressing the Sp5-Luc reporter gene and a hygromycin resistance gene were selected by treatment with 150 μg/mL of hygromycin for 7 days. These stably transduced SW480 cells were expanded in cell culture and used for all further screening activities. […] For Sp5-Luc reporter gene assays, the cells were plated at 4,000 cells/well in 384-well plates with medium containing 1% fetal bovine serum and incubated overnight at 37° C. and 5% CO2. Following incubation, 20 μl of BrightGlo luminescence reagent (Promega) was added to each well of the 384-well assay plates. The plates were placed on an orbital shaker for 2 min and then luminescence was quantified using the Envision (Perkin Elmer) plate reader. Readings were normalized to DMSO only treated cells, and normalized activities were utilized for EC50 calculations using the dose-response log (inhibitor) vs. response−variable slope (four parameters) nonlinear regression feature available in GraphPad Prism 5.0 (or Dotmatics).

[4] = tested on: IL-6; assay: IL-6 inhibition in LPS-stimulated THP-1 cells (HTRF); conditions: Homo sapiens; for EC50: THP-1 cells, LPS 500 ng/mL, 22 hours, IL6 HTRF; for inhibition at 10 µM: THP-1, read-out: percent inhibition at 10 μM
Procedure: THP-1 cells were cultured in basal media with 1% FBS for 24 hours before the start of the assay. […] THP-1 cells were plated at 5000 cells/well in the 384-well plates and incubated at 37° C. for 2 h. 500 ng/mL of LPS was added after 2 hours and cells were incubated for another 22 hours at 37° C. Plates were spun in a centrifuge for 1 minute at […] and a mixture of anti-IL6 XL665, and anti-IL6 Cryptate diluted in reconstitution buffer (Cisbio Inc.) was added to each well. Following incubation for 3 hrs at room temperature, Homogeneous Time-Resolved Fluorescence (HTRF) was measured using the Envision (Perkin Elmer) at 665 nm and […]. The ratio of fluorescence at 665 nm to 620 nm was used as a readout for IL6 quantification. All samples were processed in duplicate. Readings were normalized to DMSO treated cells and normalized activities were utilized for EC50 calculations using the dose-response log (inhibitor) vs. response−variable slope (four parameters) nonlinear regression feature available in GraphPad Prism 5.0 (or Dotmatics).

EC50 [2] | EC50 [3] | EC50 [4] | SMILES | EC50 [1] | inhibition at 10 µM [1] | inhibition at 10 µM [3] | inhibition at 10 µM [4] | inhibition at 10 µM [2]
4.09 µM | 9.12 µM | 6.43 µM | O=C(Nc1cncc(-c2cnc3[nH]nc(-c4cc5c(N6CCCCC6)cncc5[nH]4)c3c2)c1)C1CCCCC1 [Compound 191, N-(5-(3-(4-(Piperidin-1-yl)-1H-pyrrolo[2,3-c]pyridin-2-yl)-1H-pyrazolo[3,4-b]pyridin-5-yl)pyridin-3-yl)cyclohexanecarboxamide] | 5.63 µM | – | – | – | –
3.32 µM | 9.34 µM | 1.55 µM | CCNCc1cncc(-c2cnc3[nH]nc(-c4cc5ccncc5[nH]4)c3c2)c1 [Compound 258, N-((5-(3-(1H-Pyrrolo[2,3-c]pyridin-2-yl)-1H-pyrazolo[3,4-b]pyridin-5-yl)pyridin-3-yl)methyl)ethanamine] | 7.43 µM | – | – | – | –
1.15 µM | 3.87 µM | 3.75 µM | c1ccc(-c2cnc3[nH]nc(-c4cc5ccncc5[nH]4)c3c2)nc1 [Compound 280, 5-(Pyridin-2-yl)-3-(1H-pyrrolo[2,3-c]pyridin-2-yl)-1H-pyrazolo[3,4-b]pyridine] | 1.59 µM | – | – | – | –
9.97 µM | 3.62 µM | 2.08 µM | CC(C)C(=O)Nc1cncc(-c2cnc3[nH]nc(-c4cc5c(-c6ccoc6)cncc5[nH]4)c3c2)c1 [Compound 317, N-(5-(3-(4-(Furan-3-yl)-1H-pyrrolo[2,3-c]pyridin-2-yl)-1H-pyrazolo[3,4-b]pyridin-5-yl)pyridin-3-yl)isobutyramide] | 1.69 µM | – | – | – | –
6.29 µM | > 10 µM | > 10 µM | CN(C)Cc1cncc(-c2cnc3[nH]nc(-c4cc5c(-c6ccoc6)cncc5[nH]4)c3c2)c1 [Compound 321, 1-(5-(3-(4-(Furan-3-yl)-1H-pyrrolo[2,3-c]pyridin-2-yl)-1H-pyrazolo[3,4-b]pyridin-5-yl)pyridin-3-yl)-N,N-dimethylmethanamine] | > 10 µM | 41.1% | 15.4% | 29.2% | –
7 µM | 3.73 µM | 0.437 µM | CC(C)(C)CC(=O)Nc1cncc(-c2cnc3[nH]nc(-c4cc5c(-c6ccoc6)cncc5[nH]4)c3c2)c1 [Compound 324, N-(5-(3-(4-(Furan-3-yl)-1H-pyrrolo[2,3-c]pyridin-2-yl)-1H-pyrazolo[3,4-b]pyridin-5-yl)pyridin-3-yl)-3,3-dimethylbutanamide] | 0.874 µM | – | – | – | –
> 10 µM | > 10 µM | 2.52 µM | c1ncc(-c2cnc3[nH]nc(-c4cc5c(-c6ccoc6)cncc5[nH]4)c3c2)cn1 [Compound 335, 3-(4-(Furan-3-yl)-1H-pyrrolo[2,3-c]pyridin-2-yl)-5-(pyrimidin-5-yl)-1H-pyrazolo[3,4-b]pyridine] | 4.77 µM | – | 24.9% | – | 47%
> 10 µM | > 10 µM | 0.325 µM | CS(=O)(=O)NCc1cc(F)cc(-c2cncc3[nH]c(-c4n[nH]c5ncc(-c6cncc(CN7CCCC7)c6)cc45)cc23)c1 [Compound 490, N-(3-Fluoro-5-(2-(5-(5-(pyrrolidin-1-ylmethyl)pyridin-3-yl)-1H-pyrazolo [3,4-b]pyridin-3-yl)-1H-pyrrolo[2,3-c]pyridin-4-yl)benzyl)methanesulfonamide] | > 10 µM | 16.2% | 24% | – | 9.7%
> 10 µM | > 10 µM | > 10 µM | CS(=O)(=O)NCc1cc(F)cc(-c2cncc3[nH]c(-c4n[nH]c5ncc(-c6cncc(NC(=O)C7CCCCC7)c6)cc45)cc23)c1 [Compound 499, N-(5-(3-(4-(3-Fluoro-5-(methylsulfonamidomethyl)phenyl)-1H-pyrrolo[2,3-c]pyridin-2-yl)-1H-pyrazolo[3,4-b]pyridin-5-yl)pyridin-3-yl)cyclohexanecarboxamide] | > 10 µM | 28.5% | 12.3% | 32.4% | 9.9%
> 10 µM | > 10 µM | 4.09 µM | Fc1cccc(-c2cncc3[nH]c(-c4n[nH]c5ncc(C6CCNCC6)cc45)cc23)c1 [Compound 505, 3-(4-(3-Fluorophenyl)-1H-pyrrolo[2,3-c]pyridin-2-yl)-5-(piperidin-4-yl)-1H-pyrazolo[3,4-b]pyridine] | > 10 µM | 0% | 17.5% | – | 7%
2.6 µM | 7.28 µM | > 10 µM | Fc1ccc(-c2cncc3[nH]c(-c4n[nH]c5ncc(-c6cncc(OC7CCCCC7)c6)cc45)cc23)cc1 [Compound 527, 5-(5-(Cyclohexyloxy)pyridin-3-yl)-3-(4-(4-fluorophenyl)-1H-pyrrolo[2,3-c]pyridin-2-yl)-1H-pyrazolo[3,4-b]pyridine] | 4.35 µM | – | – | 21.7% | –
> 10 µM | > 10 µM | > 10 µM | O=C(CC1CCNCC1)Nc1cncc(-c2cnc3[nH]nc(-c4cc5c(-c6cccnc6)cncc5[nH]4)c3c2)c1 [Compound 561, 2-(Piperidin-4-yl)-N-(5-(3-(4-(pyridin-3-yl)-1H-pyrrolo[2,3-c]pyridin-2-yl)-1H-pyrazolo[3,4-b]pyridin-5-yl)pyridin-3-yl)acetamide] | 2.2 µM | – | 0% | 14.5% | 4.4%
> 10 µM | 1.16 µM | 0.199 µM | Cn1cc(-c2cnc3[nH]nc(-c4cc5c(-c6cc(F)cc(CNS(C)(=O)=O)c6)cncc5[nH]4)c3c2)cn1 [Compound 764, N-(3-Fluoro-5-(2-(5-(1-methyl-1H-pyrazol-4-yl)-1H-pyrazolo[3,4-b]pyridin-3-yl)-1H-pyrrolo[2,3-c]pyridin-4-yl)benzyl)methanesulfonamide] | 1.04 µM | – | – | – | 0%
